# In US20220289794A1, “SYNTHETIC ANTIMICROBIAL PEPTIDES” (priority 2019, published 2022):
# Non-standard residues stand in square brackets, D forms with d. Residues, ends and D or L forms follow the SMILES beside them. Dip = N[C@H](C(=O)O)C(c1ccccc1)c1ccccc1; 2Nal = N[C@@H](Cc1ccc2ccccc2c1)C(=O)O; d2Nal = N[C@H](Cc1ccc2ccccc2c1)C(=O)O; Dab = NCC[C@H](N)C(=O)O
# Tests used:
# [1] = system: Methicillin-resistant Staphylococcus aureus MRSA (ATCC BAA-1556); conditions: ATCC BAA-1556
# human red blood cells = system: human red blood cells; set-up: unit not given beside the values
# [2] = system: Escherichia coli (ATCC 25922); conditions: ATCC 25922
# S. aureus ATCC 29213 = conditions: ATCC 29213
# [3] = system: Pseudomonas aeruginosa (ATCC 27883); conditions: ATCC 27883
SMILES,MIC MRSA ATCC BAA-1556 [1] [µg/mL],HC50 (human red blood cells),MIC E. coli ATCC 25922 [2] [µg/mL],MIC S. aureus ATCC 29213 (S. aureus ATCC 29213) [µg/mL],MIC P. aeruginosa ATCC 27883 [3] [µg/mL]
"N=C(N)NCCC[C@H](NC(=O)[C@H](CCCNC(=N)N)NC(=O)[C@@H](N)CCCNC(=N)N)C(=O)N[C@@H](CCCNC(=N)N)C(=O)N[C@H](C(=O)N[C@@H](Cc1c[nH]c2ccccc12)C(=O)N[C@H](C(=O)O)C(c1ccccc1)c1ccccc1)C(c1ccccc1)c1ccccc1 [IFX-027-1, NH2-R-R-R-R-Dip-Trp-Dip-OH] (H-RRRR[Dip]W[Dip]-OH)",3.1,910,12.5,3.1,25
"N=C(N)NCCC[C@@H]1NC(=O)[C@H](CCCNC(=N)N)NC(=O)[C@H](CCCNC(=N)N)NC(=O)[C@H](Cc2ccc3ccccc3c2)NC(=O)[C@H](Cc2ccc3ccccc3c2)NC(=O)[C@H](Cc2ccc3ccccc3c2)NC(=O)[C@H](CCCNC(=N)N)NC(=O)[C@H](CCCNC(=N)N)NC1=O [IFX-013, c[Arg-Arg-Arg-Arg-Arg-NaI-NaI-NaI]] (cyclo([2Nal][2Nal][2Nal]RRRRR))",6.2,230,50,6.2,25
"N=C(N)NCCC[C@H](NC(=O)[C@H](CCCNC(=N)N)NC(=O)[C@@H](N)CCCNC(=N)N)C(=O)N[C@@H](Cc1ccc2ccccc2c1)C(=O)N[C@@H](Cc1c[nH]c2ccccc12)C(=O)N[C@@H](Cc1ccc2ccccc2c1)C(=O)O [IFX-024-1, NH2-R-R-R-NaI-Trp-NaI-OH] (H-RRR[2Nal]W[2Nal]-OH)",6.2,410,12.5,6.2,25
"N=C(N)NCCC[C@H](NC(=O)[C@H](CCCNC(=N)N)NC(=O)[C@@H](N)CCCNC(=N)N)C(=O)N[C@H](C(=O)N[C@H](C(=O)N[C@@H](Cc1c[nH]c2ccccc12)C(=O)O)C(c1ccccc1)c1ccccc1)C(c1ccccc1)c1ccccc1 [IFX-022-1, NH2-R-R-R-Dip-Dip-Trp-OH] (H-RRR[Dip][Dip]W-OH)",12.5,380,25,12.5,50
"N=C(N)NCCC[C@@H]1NC(=O)[C@H](CCN)NC(=O)[C@@H](Cc2ccc3ccccc3c2)NC(=O)[C@@H](Cc2ccc3ccccc3c2)NC(=O)[C@H](Cc2c[nH]c3ccccc23)NC(=O)[C@H](CCN)NC(=O)[C@@H](CCCNC(=N)N)NC(=O)[C@H](CCCNC(=N)N)NC(=O)[C@@H](CCCNC(=N)N)NC1=O [IFX-057, c[Dab-Arg-arg-Arg-arg-Dab-Trp-naI-naI]] (cyclo([Dab]R[dR]R[dR][Dab]W[d2Nal][d2Nal]))",32,520,32,16,32
"N=C(N)NCCC[C@H](NC(=O)[C@H](CCCNC(=N)N)NC(=O)[C@@H](N)CCCNC(=N)N)C(=O)N[C@@H](CCCNC(=N)N)C(=O)N[C@H](C(=O)N[C@H](C(=O)N[C@@H](Cc1c[nH]c2ccccc12)C(=O)O)C(c1ccccc1)c1ccccc1)C(c1ccccc1)c1ccccc1 [IFX-028-1, NH2-R-R-R-R-Dip-Dip-Trp-OH] (H-RRRR[Dip][Dip]W-OH)",6.2,570,25,6.2,50
"N=C(N)NCCC[C@H](NC(=O)[C@H](Cc1ccc2ccccc2c1)NC(=O)[C@H](Cc1ccc2ccccc2c1)NC(=O)[C@H](CCCNC(=N)N)NC(=O)[C@H](CCCNC(=N)N)NC(=O)[C@H](Cc1ccc2ccccc2c1)NC(=O)[C@@H](N)CCCNC(=N)N)C(=O)O [IFX-018-1, NH2-Arg-NaI-Arg-Arg-NaI-NaI-Arg-OH] (H-R[2Nal]RR[2Nal][2Nal]R-OH)",25,405,25,12.5,50
"N=C(N)NCCC[C@@H]1NC(=O)[C@H](CCCNC(=N)N)NC(=O)[C@H](CCCNC(=N)N)NC(=O)[C@@H](Cc2c[nH]c3ccccc23)NC(=O)[C@@H](Cc2c[nH]c3ccccc23)NC(=O)[C@@H](Cc2c[nH]c3ccccc23)NC(=O)[C@@H](Cc2c[nH]c3ccccc23)NC(=O)[C@H](CCCNC(=N)N)NC1=O [IFX-035, c[Arg-Arg-Arg-Arg-trp-trp-trp-trp]] (cyclo(RRRR[dW][dW][dW][dW]))",6.2,670,12.5,6.2,25
"N=C(N)NCCC[C@H]1NC(=O)[C@H](Cc2c[nH]c3ccccc23)NC(=O)[C@H](Cc2c[nH]c3ccccc23)NC(=O)[C@H](Cc2c[nH]c3ccccc23)NC(=O)[C@H](Cc2c[nH]c3ccccc23)NC(=O)[C@@H](CCCNC(=N)N)NC(=O)[C@@H](CCCNC(=N)N)NC(=O)[C@@H](CCCNC(=N)N)NC1=O [IFX-036, c[arg-arg-arg-arg-Trp-Trp-Trp-Trp]] (cyclo([dR][dR][dR][dR]WWWW))",6.2,600,12.5,6.2,25
"N=C(N)NCCC[C@@H]1NC(=O)[C@H](CCCNC(=N)N)NC(=O)[C@H](CCCNC(=N)N)NC(=O)[C@H](Cc2ccc3ccccc3c2)NC(=O)[C@H](Cc2ccc3ccccc3c2)NC(=O)[C@H](Cc2ccc3ccccc3c2)NC(=O)[C@H](CCCNC(=N)N)NC1=O [IFX-009, c[Arg-Arg-Arg-Arg-NaI-NaI-NaI]] (cyclo(RRRR[2Nal][2Nal][2Nal]))",1.5,205,25,1.5,12.5
N=C(N)NCCC[C@@H]1NC(=O)CNC(=O)[C@H](Cc2c[nH]c3ccccc23)NC(=O)[C@H](Cc2c[nH]c3ccccc23)NC(=O)[C@H](Cc2c[nH]c3ccccc23)NC(=O)[C@H](Cc2c[nH]c3ccccc23)NC(=O)CNC(=O)[C@H](CCCNC(=N)N)NC(=O)[C@H](CCCNC(=N)N)NC(=O)[C@H](CCCNC(=N)N)NC1=O [IFX-043] (cyclo(GRRRRGWWWW)),6.2,580,25,6.2,50
"N=C(N)NCCC[C@@H]1NC(=O)[C@H](CCCNC(=N)N)NC(=O)[C@H](CCCNC(=N)N)NC(=O)[C@H](Cc2ccc3ccccc3c2)NC(=O)[C@H](Cc2ccc3ccccc3c2)NC(=O)[C@H](CCCNC(=N)N)NC1=O [IFX-011, c[Arg-Arg-Arg-Arg-NaI-NaI]] (cyclo([2Nal][2Nal]RRRR))",6.2,295,50,6.2,50
"N=C(N)NCCC[C@H](NC(=O)[C@H](CCCNC(=N)N)NC(=O)[C@H](CCCNC(=N)N)NC(=O)[C@@H](N)CCCNC(=N)N)C(=O)N[C@@H](Cc1c[nH]c2ccccc12)C(=O)N[C@@H](Cc1ccc2ccccc2c1)C(=O)N[C@@H](Cc1ccc2ccccc2c1)C(=O)O [IFX-029-1, NH2-R-R-R-R-Trp-NaI-NaI-OH] (H-RRRRW[2Nal][2Nal]-OH)",3.1,400,12.5,3.1,50
"N=C(N)NCCC[C@H](NC(=O)[C@H](CCCNC(=N)N)NC(=O)[C@H](Cc1ccc2ccccc2c1)NC(=O)[C@H](Cc1ccc2ccccc2c1)NC(=O)[C@H](CCCNC(=N)N)NC(=O)[C@@H](N)CCCNC(=N)N)C(=O)N[C@@H](Cc1ccc2ccccc2c1)C(=O)O [IFX-019-1, NH2-Arg-Arg-NaI-NaI-Arg-Arg-NaI-OH] (H-RR[2Nal][2Nal]RR[2Nal]-OH)",25,395,25,12.5,25
"N=C(N)NCCC[C@H](NC(=O)[C@H](CCCNC(=N)N)NC(=O)[C@H](CCCNC(=N)N)NC(=O)[C@@H](N)CCCNC(=N)N)C(=O)N[C@@H](Cc1ccc2ccccc2c1)C(=O)N[C@@H](Cc1ccc2ccccc2c1)C(=O)N[C@@H](Cc1ccc2ccccc2c1)C(=O)N[C@@H](Cc1ccc2ccccc2c1)C(=O)O [IFX-006-1, NH2-Arg-Arg-Arg-Arg-NaI-NaI-NaI-NaI-OH] (H-RRRR[2Nal][2Nal][2Nal][2Nal]-OH)",6.2,140,50,3.1,>100
"N=C(N)NCCC[C@H](NC(=O)[C@H](CCCNC(=N)N)NC(=O)[C@H](CCCNC(=N)N)NC(=O)[C@@H](N)CCCNC(=N)N)C(=O)N[C@@H](Cc1ccc2ccccc2c1)C(=O)N[C@@H](Cc1c[nH]c2ccccc12)C(=O)N[C@@H](Cc1ccc2ccccc2c1)C(=O)O [IFX-030-1, NH2-R-R-R-R-NaI-Trp-NaI-OH] (H-RRRR[2Nal]W[2Nal]-OH)",6.2,430,12.5,6.2,25
"N=C(N)NCCC[C@@H]1NC(=O)[C@H](CCCNC(=N)N)NC(=O)[C@H](CCCNC(=N)N)NC(=O)[C@H](C(c2ccccc2)c2ccccc2)NC(=O)[C@H](C(c2ccccc2)c2ccccc2)NC(=O)[C@H](CCCNC(=N)N)NC1=O [IFX-010, c[Arg-Arg-Arg-Arg-Dip-Dip]] (cyclo([Dip][Dip]RRRR))",6.2,270,50,6.2,25
